The text below walks through data of patent US10585102B2, “Characterization of cancer using detection of activated leukocyte cell adhesion molecule (ALCAM) shedding” (Vanderbilt University, priority 2012, dated 2020).

For one data set, the system named is HEp3 cells. Briefly: Transwell migration with pathway inhibitors, with or without anti-CD151 antibody 1A5. In kind it is cell-based, human.
Data set [1] has as its system PC3 cells. Briefly: ALCAM shedding in conditioned media of cytokine-treated cells (ELISA). In kind it is cell-based, human. The note with it: PC3 concentrated conditioned media; 8 agents tested.
For the next data set, the system named is LNCaP cells. Briefly: ALCAM expression in response to TGFβ (RT-PCR, Western blot). In kind it is cell-based, human. The note with it: lack TGFβ receptor type I. As for the experimental part: (§1) SDS-PAGE and immunoblotting. Cells (2.5×10^5) were plated in 6-well dishes. After 24 h, cells were serum starved in Opti-MEM for 16 h and then treated in the presence or absence of indicated growth factors or inhibitors, for 48 h. After that, the cells were lysed in TNE Lysis Buffer (20 mM Tris-Cl [pH 7.4], 0.5 mM EDTA, 1% Triton X-100, 150 mM NaCl, protease inhibitor cocktail (sigma), 1 mM phenylmethylsulfonyl fluoride). Total protein in the lysates was quantified using BCA assay (BioRad). Conditioned media samples were concentrated with microcon centrifugal filters (Millipore) following manufacturers protocol, which were eluted directly in 5× sample buffer for Western blot analysis. Protein loading for conditioned-medium samples for Western blot analysis was adjusted according to the total protein in cell lysates. Conditioned media and total protein was subjected to SDS-PAGE and electrophoretic transfer to polyvinylidene difluoride membranes (Immobilon P, Millipore, Inc., Bedford, Mass.). Immunodetection was done by conventional chemiluminescence
(§2) The mRNA samples were prepared from tumor cells lysed in TRI Reagent (Ambion) and purified using phenol extraction, followed by real-time polymerase chain reaction (RT-PCR). The following qPCR primers were used ALCAM, […] (forward) and […] (reverse); ADAM17, […] (forward) and […] (reverse); and glyceraldehyde-3-phosphate dehydrogenase, […] (forward) and TTCCCCATGGTGTCTGAGC (reverse).
(§3) ALCAM is proteolytically shed from PC3 cells (FIG. 21). Absence of the cytoplasmic tail confirms that the ectodomain is shed (FIG. 21A). Moreover, ALCAM is absent from PC3-derived exosomes ensuring that the ectodomain is shed and not released with cell-derived microparticles (FIG. 21B). Since prostate cancer disseminates predominantly to bone we selected cytokines thought to be involved in this process, including TGFβ. […] To further explore the response to exogenous stimulation with TGFβ, ALCAM expression in PC3 cells was compared to ALCAM expression in LNCaP cells which are unable to respond to the cytokine because they lack TGFβ receptor type I (FIGS. 23B and 23C). […] TGFβ-induced expression in PC3 cells could be abrogated with the small molecule inhibitor SB431542 (FIG. 23D, 10 μm; Sigma) while TGFβ-induced ALCAM mRNA and protein expression could be restored in LNCaP cells when the cells were transfected with dominant-active TGFβ receptor type I (FIGS. 23E and 23F).

The subject of data set [2] is PC3 cells. Described as above. In kind it is cell-based, human. As to the method: as §1, §2, §3
A further data set deals with Rap1A. Briefly: Rap1 activation assay (GTP-bound Rap1A pull-down, immunoblot). In kind it is cell-based. The note with it: HEp3 cells; PKCα inhibited by pharmacological means. In general terms: A western blot detects proteins with antibodies after separation by electrophoresis.
A short description of data set [3]: In vivo ALCAM serum half-life. The note with it: serum injected retrorbitally in ALCAM KO mice; ELISA. As to the method: Serum was harvested from ALCAM wild-type, mixed background, mice and pooled. Combined serum collected from WT mice was injected retrorbitally in ALCAM KO mice (100 μl/mouse). ALCAM KO mice were pre-bled via saphenous vein bleed, and then bled at 10 mins, 2 hours, 4 hours, 24 hours and 48 hours (n=2/time point; total n=10). WT pooled serum was used as ELISA control to quantitatively determine ALCAM serum half-life.
To determine if tumor-derived ALCAM is the source of elevated circulating ALCAM, species-specific antibodies were used to monitor circulating levels of both host (mouse) ALCAM and tumor (human) ALCAM longitudinally during orthotopic and subcutaneous growth of PC3 cells (FIG. 24). The half-life of human ALCAM in the circulation of its mouse host was determined to confirm that tumor-derived ALCAM could act as a stable biomarker in vivo (FIG. 25).
(In general: In an ELISA, binding on a coated surface is turned into a signal by an enzyme label.)

[4] abbreviates: HEp3 cells, ± anti-CD151 antibody 1A5.

Like-named read-outs stand apart in the source and are kept apart here.

Experimental for HEp3 cells: In Vitro Transwell Migration: Tumor cells in a single cell suspension were plated into the top chamber of 8 μm transwell (Costar) inserts in the presence of serum free/insulin free media. Cell culture media containing 10% fetal bovine serum was placed in the bottom chamber to serve as a chemoattractant. Migration assays were carried out for 12 hrs in a 37° C. cell culture incubator containing 5% CO2. The top surface of the inserts was cleaned with a cotton swab soaked with PBS to remove the non-migrated cells. The transwell inserts were subsequently fixed in methanol and stained with 0.2% crystal violet. The number of migrated cells was counted in 3 independent fields under 20× magnification with a light microscope.
Transwell migration assays were performed in the presence or absence of each inhibitor together with or without the anti-CD151 antibody 1A5.
Experimental for Rap1A: Rap1 activation was analyzed using the Rap1 activation kit (Chemicon). All treatments were performed in the presence of serum free/insulin free media. Cells to be assayed were washed with ice cold PBS and lysed in RIPA like Rap1 buffer (10% glycerol, 50 mM Tris/HCl, 150 mM NaCl, 5 mM phenylmethylsulfonyl fluoride, 1 mM sodium orthovanadate). The lysates were pushed through a 25 gauge syringe and cleared by centrifugation at max speed at 4 degrees for 10 min. Equal amounts of lysates were immunoprecipitated with Ra1GDS RBD conjugated agarose beads for 45 minutes at 4° C. After washing the beads where resuspended with sample buffer and boiled for 5 minutes. The immunoprecipitates were separated by SDS-Page as mentioned above, transferred to PVDF membranes, probed with the anti-Rap1 antibody and horse radish peroxidase-conjugated secondary antibody. After washing the membranes were developed by autoradiography.
To evaluate whether Rap1A was activated in response to CD151 clustering as well as ALCAM-ALCAM ligation, HEp3 cells were treated with 1A5 or seeded on ALCAM-FC for up to 48 hrs. Active Rap1A in the cells was evaluated by immunblotting of GTP-bound Rap1A affinity purified from lysates with Ra1-GDS beads.

On to `COC(=O)[C@H](CC(C)C)NC(=O)c1ccc(NC[C@@H](N)CS)cc1-c1cccc2ccccc12` [GGTI-298], for which the “Transwell migration in the presence or absence of inhibitor, with or without 1A5” value with HEp3 cells (setting [4]) is reported as “allowed for migration of untreated cells but prevented 1A5 from inhibiting migration”.

Take `N#CC(=C(/N)Sc1ccccc1N)/C(C#N)=C(\N)Sc1ccccc1N` [U0126]: in the data set on HEp3 cells, the “Transwell migration in the presence or absence of inhibitor, with or without 1A5” value was “inhibited migration independent of anti-CD151 antibody treatment”.

In the case of TGFβ, the ALCAM shedding entry with PC3 cells [1] was “promoted ALCAM shedding relative to overall total protein increase”. In addition, in the data set with LNCaP cells, the “response of ALCAM expression to TGFβ” value is “did not respond”. Moreover, in the data set with PC3 cells [2] (10 ng/ml TGFβ, 48 hrs), the “ALCAM gene transcription (quantitative RT-PCR)” value is recorded as “able to induce ALCAM gene transcription in PC3”. Besides, the “ALCAM protein expression and ectodomain shedding (Western blot)” value in the data set on PC3 cells [2] (cell lysate and conditioned media) was “increased levels of ALCAM protein expression and ectodomain shedding”.

As to `COc1ccc2c(c[n+](C)c3c4cc5c(cc4ccc23)OCO5)c1OC` [Chelerythrin], the “Transwell migration in the presence or absence of inhibitor, with or without 1A5” value with HEp3 cells (setting [4]) is “allowed for migration of untreated cells but prevented 1A5 from inhibiting migration”. Further, in the data set on Rap1A, the “Rap1A activation by 1A5 after PKCα disruption” value is 1A5 was unable to promote Rap1A activation.

Consider `NC(=O)c1ccc(-c2nc(-c3ccc4c(c3)OCO4)c(-c3ccccn3)[nH]2)cc1` [SB431542], for which, in the data set on PC3 cells [2] (10 μm inhibitor, 10 ng/ml TGFβ, 48 hrs), the “TGFβ-induced ALCAM expression” value was “abrogated”.

B1: ALCAM: circulating soluble Activated Leukocyte Cell Adhesion Molecule (shed ectodomain) in serum (protein, UniProt Q13740 28-527, looked up)
extracellular domain: WYTVNSAYGDTIIIPCRLDVPQNLMFGKWKYEKPDGSPVFIAFRSSTKKSVQYDDVPEYKDRLNLSENYTLSISNARISDEKRFVCMLVTEDNVFEAPTIVKVFKQPSKPEIVSKALFLETEQLKKLGDCISEDSYPDGNITWYRNGKVLHPLEGAVVIIFKKEMDPVTQLYTMTSTLEYKTTKADIQMPFTCSVTYYGPSGQKTIHSEQAVFDIYYPTEQVTIQVLPPKNAIKEGDNITLKCLGNGNPPPEEFLFYLPGQPEGIRSSNTYTLTDVRRNATGDYKCSLIDKKSMIASTAITVHYLDLSLNPSGEVTRQIGDALPVSCTISASRNATVVWMKDNIRLRSSPSFSSLHYQDAGNYVCETALQEVEGLKKRESLTLIVEGKPQIKMTKKTDPSGLSKTIICHVEGFPKPAIQWTITGSGSVINQTEESPYINGRYYSKIIISPEENVTLTCTAENQLERTVNSLNVSAISIPEHDEADEISDENREKVNDQAK
modifications: extracellular domain shed soluble form
As to B1, the half-life in circulation in data set [3] was 17 h.
